# Assay results published in patent US7387715B2, “Sample positioning and analysis system” (priority 1997, dated 2008).
# Non-standard residues stand in square brackets, D forms with d. Residues, ends and D or L forms follow the SMILES beside them. Phe(ol) = N[C@H](CO)Cc1ccccc1; Aib = CC(C)(N)C(=O)O
# How the values were obtained:
# [1] = Voltage-clamp current recording of alamethicin pores in a vesicle-derived membrane over a chip aperture; assay type: biochemical; details: alamethicin 0.1 μg/mL final concentration in measurement compartment, 85 mM KCl
# Experimental: In these experiments, a membrane is formed over an aperture in 85 mM KCl. Next, alamethicin is added to the measurement compartment, to a final concentration of 0.1 μg/mL.^xvii Finally, a potential is applied, and a plot of current versus time is generated.
# [2] = system: nAChR (nicotinic acetylcholine receptor); test: Voltage-clamp current recording of nAChR fused into a membrane on a Si/SiO2 carrier chip; assay type: biochemical; details: carbamylcholine 20 μM final concentration
# Experimental: In these experiments, a membrane is formed as above. Next, nAChR is introduced into the membrane via Ca^2+-mediated fusion. Specifically, nAChR is purified from an appropriate source, and then reconstituted into small unilamellar vesicles.^xviii Next, these vesicles are added to the measurement compartment, and then fused to the membrane by increasing the Ca^2+ concentration of the sample chamber to greater than about 1 mM. In given cases, the fusion is supported by the subsequent temporary setup of an osmotic gradient.^xix Finally, a potential is applied, and a plot of current versus time is generated. In the absence of agonists, typical receptor opening events are observed (FIG. 15A), whereas, in the presence of agonists, such as carbamylcholine (20 μM final concentration), such receptor opening events are substantially extinguished within a short time (t<100 seconds) (FIG. 15B).
Structure (SMILES),conductivities of the alamethicin pores [1],"receptor openings after addition of the agonist (desensitization) ([2]; 150 seconds after addition, 400 mM KCl, positive potentials)",time within which receptor opening events are substantially extinguished in the presence of agonist [2]
CC(=O)NC(C)(C)C(=O)N1CCC[C@H]1C(=O)NC(C)(C)C(=O)N[C@@H](C)C(=O)NC(C)(C)C(=O)N[C@@H](C)C(=O)N[C@@H](CCC(N)=O)C(=O)NC(C)(C)C(=O)N[C@H](C(=O)NC(C)(C)C(=O)NCC(=O)N[C@@H](CC(C)C)C(=O)NC(C)(C)C(=O)N1CCC[C@H]1C(=O)N[C@H](C(=O)NC(C)(C)C(=O)NC(C)(C)C(=O)N[C@@H](CCC(=O)O)C(=O)N[C@@H](CCC(N)=O)C(=O)N[C@H](CO)Cc1ccccc1)C(C)C)C(C)C [alamethicin] (Ac-[Aib]P[Aib]A[Aib]AQ[Aib]V[Aib]GL[Aib]PV[Aib][Aib]EQ[Phe(ol)]),600 pS,–,–
C[N+](C)(C)CCOC(N)=O.[Cl-] [carbamylcholine],–,no receptor openings are observed,< 100 s
